{"source": "patent US12263248B2", "about": "“Compounds and compositions for intracellular delivery of therapeutic agents” (ModernaTX, Inc., priority 2018, dated 2025)", "key": {"[1]": {"assay": "Lipid clearance: lipid level in mouse liver tissue (LC-MS/MS)", "format": "in vivo", "experimental": "Quantification of Lipid by LC-MS/MS: Liver samples were homogenized following addition of 19 eq. (w/v) of water (DF=20). Protein was precipitated and analyzed against calibration standards prepared in matching blank. Chromatographic separation and quantification was accomplished with a LC-MS/MS System. Samples were injected and separated via HPLC A triple-quadrupole MS/MS system operated in positive ion mode was used for signal detection."}, "sC5b-9": {"system": "sC5b-9", "assay": "Complement activation in vitro (sC5b-9 levels)", "format": "cell-based", "settings": "human cells contacted in vitro", "how_it_was_run": "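Human cells exposed in vitro to nanoparticle compositions, with the soluble terminal complement complex sC5b-9 measured as a marker of complement activation.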"}, "hEPO mRNA [2]": {"system": "hEPO mRNA", "assay": "hEPO expression after intravenous administration to rats", "format": "in vivo, rat", "how_it_was_run": "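Rats dosed intravenously once with nanoparticle composition, 0.2 or 2.0 mpk, formulated by the standard MC3 method. Tail-vein blood sampled at 6 h or at time points from 0.25 to 48 h. hEPO measured by ELISA.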"}, "IP-10": {"system": "IP-10", "assay": "Cytokine induction in rats after intravenous administration", "format": "in vivo, rat", "settings": "rats, 2.0 mpk, 6 hours, hEPO nanoparticle compositions", "procedure": "The expression of hEPO and cytokine induction in rats intravenously administered a nanoparticle composition at a dose of 2.0 mpk was measured at 6 h.\nTable 19A summarizes the hEPO expression, IP-10 induction, liver and spleen levels, and alanine aminotransferase (ALT) and aspartate aminotransferase (AST) measured upon intravenous administration of formulations including Compounds 48, 49, and 50 to rat at 0.2 and 2 mpk and hEPO mRNA. hEPO concentrations were measured 6 hours after administration, while cytokine induction and liver and spleen levels were measured 48 hours after administration. hEPO and IP-10 concentrations are presented in pg/ml, while liver levels are provided in ng/g. ALT and AST levels are presented in international units."}, "[3]": {"assay": "Residual lipid levels in rat liver and spleen (UPLC-MS)", "format": "in vivo", "how_it_was_run": "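Rats received a single intravenous dose of lipid nanoparticle composition, and liver tissue was later collected to quantify residual lipid. Weighed tissue was homogenized in Milli-Q water (900 μL per 100 mg tissue) using an Omni probe homogenizer. 50 μL aliquots were mixed with 400 μL spiking solution, vortexed, centrifuged, and analyzed by UPLC on a C8 column with positive-mode ESI detection on a Sciex API5500 mass spectrometer.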"}, "hEPO mRNA [4]": {"system": "hEPO mRNA", "assay": "hEPO expression after subcutaneous administration to mice", "format": "in vivo, female CD-1 mice", "settings": "0.5 mpk", "how_it_was_run": "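Lipid nanoparticle formulations carrying hEPO or luciferase mRNA were given subcutaneously at 0.5 mpk to female CD-1 mice. Whole-body luminescence imaging was done at 3, 6 and 24 h. Liver, spleen and injection-site expression were assessed ex vivo at 24 h.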"}, "[5]": {"assay": "Chemical stability of lipids in ethanol (lipid purity)", "format": "physicochemical", "how_it_was_run": "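Lipid chemical stability was assessed as lipid purity after storage in ethanol at room temperature and at 37° C.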"}}, "note": "Marks after values point to notes of the source that are not given here."}
{"smiles": "CCCCCCCCCOC(=O)CCCCCCCN(CCO)CCCCCCCC(=O)OC(CCCCCCCC)CCCCCCCC", "note": "[Compound 18, Heptadecan-9-yl 8-((2-hydroxyethyl)(8-(nonyloxy)-8-oxooctyl)amino)octanoate]", "values": [{"measurement": "% dose remaining Mouse liver tissue, 24 h", "setting": "[1]; CD-1 mouse liver 24 h after 0.5 mg/kg bolus dose mRNA, n = 5 ± S.D.", "value": 0, "unit": "%"}, {"measurement": "original dose remaining in liver tissue 24 hours post dose", "setting": "[1]; mice, intravenous", "value": "no lipid detected"}, {"measurement": "Fold increase in sC5b-9 levels versus saline", "setting": "sC5b-9", "value": 1.28}, {"measurement": "sC5b-9 levels relative to saline", "setting": "sC5b-9; in words", "value": "somewhat increase"}, {"measurement": "Lipid/MC3 hEPO expression", "setting": "hEPO mRNA [2]; 2 mpk dose to rat, 6 hours after administration", "value": 0.81}, {"measurement": "hEPO expression", "setting": "hEPO mRNA [2]; rat, 6 h, 2 mpk, i.v.", "value": "9.96e+06", "unit": "pg/mL"}, {"measurement": "hEPO expression 0.25 h", "setting": "hEPO mRNA [2]; rat, intravenous, 0.2 mpk, 0.25 h", "value": 20227, "unit": "pg/mL"}, {"measurement": "hEPO expression 0.5 h", "setting": "hEPO mRNA [2]; rat, intravenous, 0.2 mpk, 0.5 h", "value": 20743, "unit": "pg/mL"}, {"measurement": "hEPO expression 1 h", "setting": "hEPO mRNA [2]; rat, intravenous, 0.2 mpk, 1 h", "value": 194353, "unit": "pg/mL"}, {"measurement": "hEPO expression 2 h", "setting": "hEPO mRNA [2]; rat, intravenous, 0.2 mpk, 2 h", "value": 238107, "unit": "pg/mL"}, {"measurement": "hEPO expression 4 h", "setting": "hEPO mRNA [2]; rat, intravenous, 0.2 mpk, 4 h", "value": 514807, "unit": "pg/mL"}, {"measurement": "hEPO expression 8 h", "setting": "hEPO mRNA [2]; rat, intravenous, 0.2 mpk, 8 h", "value": 915320, "unit": "pg/mL"}, {"measurement": "hEPO expression 24 h", "setting": "hEPO mRNA [2]; rat, intravenous, 0.2 mpk, 24 h", "value": 412051, "unit": "pg/mL"}, {"measurement": "hEPO expression 48 h", "setting": "hEPO mRNA [2]; rat, intravenous, 0.2 mpk, 48 h", "value": 52361, "unit": "pg/mL"}, {"measurement": "Lipid/MC3 hEPO conc. ratio 2 mpk", "setting": "hEPO mRNA [2]; rats, intravenous, 2 mpk, 6 hours", "value": 0.81}, {"measurement": "IP-10", "setting": "IP-10", "value": 517.3, "unit": "pg/mL"}, {"measurement": "% dose remaining Rat liver tissue, 48 h", "setting": "[3]; Sprague Dawley rat liver 48 h after 2 mg/kg bolus dose mRNA", "value": "0.02^e %"}, {"measurement": "% lipid remaining in liver after 48 hours", "setting": "[3]; liver, 48 hours", "value": 0.018, "unit": "%"}, {"measurement": "% Lipid Remaining in liver, 48 h", "setting": "[3]; rats, 2 mpk, 48 h, assuming 300 g rat and 15 g liver", "value": 0.018, "unit": "%"}, {"measurement": "% remaining dose in liver, 48 h", "setting": "[3]; rats, intravenous, 2.0 mpk, 48 h", "value": "<1", "unit": "%"}, {"measurement": "hEPO expression Lipid/MC3 ratio, 6 hr.", "setting": "hEPO mRNA [4]; 6 hr.", "value": 2.63}, {"measurement": "hEPO expression Lipid/MC3 ratio, AUC", "setting": "hEPO mRNA [4]; AUC", "value": 1.88}, {"measurement": "Lipid Purity", "setting": "[5]; t = 0", "value": 94.37, "unit": "%"}, {"measurement": "Lipid Purity", "setting": "[5]; t = 96 h, 25° C.", "value": 94.71, "unit": "%"}, {"measurement": "Lipid Purity", "setting": "[5]; t = 96 h, 37° C.", "value": 95.01, "unit": "%"}]}
